The results in this text go back to patent publication US11207296B2, “XPA inhibitor compounds and their use” (INDIANA UNIVERSITY RESEARCH AND TECHNOLOGY CORPORATION, priority 2017, dated 2021).

By IC50 is commonly meant the concentration that inhibits the measured activity by half. Read a high IC50 as weaker potency in that assay.

Where “and” joins values, the source holds several entries; their conditions need not be identical. Equal values may be shown once.
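Note: XPA expressed in Sf9 cells, preincubated with compound on ice before adding DNA, complex resolved on native polyacrylamide gel at 4 °C, PhosphorImager band intensity, binding inhibition versus DMSO.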

The target of the experiment is full length XPA protein (Homo sapiens, UniProt P23025). Briefly: biochemical. As to conditions: IC50 (μM), EMSA, 32P labeled 30 bp duplex DNA containing a single 1,2 dGpG cisplatin adduct, several values in a cell = separate determinations. A general note: Mobility shift assays separate free from complexed probe on a gel.
Sequence of full length XPA protein (P23025 whole entry): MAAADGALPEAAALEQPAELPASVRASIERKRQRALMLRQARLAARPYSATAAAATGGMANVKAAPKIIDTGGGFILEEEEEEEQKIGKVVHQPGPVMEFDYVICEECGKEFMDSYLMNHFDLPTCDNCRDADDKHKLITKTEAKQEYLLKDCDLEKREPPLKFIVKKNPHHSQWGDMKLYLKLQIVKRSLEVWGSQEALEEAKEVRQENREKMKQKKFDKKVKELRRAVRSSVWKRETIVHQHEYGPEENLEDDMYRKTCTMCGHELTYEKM
Protocol: Purified XPA (lanes 2-18) was mixed with DMSO (Lane 2, C) control or the indicated compound at a concentration of 50 μM (Lanes 3-18). ^32P labeled ds-platinum damaged DNA was added and incubation continued for 30 minutes on ice. The products were separated on a 6% native gel by electrophoresis at 4° C. Products were detected and quantified by PhosphorImager analysis.
EMSA was carried out using previously described procedure with the following modification. Reactions were performed in volume of 20 μL, containing a ^32P labeled 30 bp duplex DNA containing a single 1,2 dGpG cisplatin adduct. Compounds were pre-incubated on ice with the indicated amount of XPA and products separated by electrophoresis on a non-denaturing 6% polyacrylamide gel. Gels were cooled, loaded and electrophoresis performed at 4° C. Gels were used to expose a Phosphorlmager screen and band intensity determined and % binding and inhibition calculated as we have previously described.
`CC1=NN(c2cccc(C(=O)O)c2)C(=O)C1=Cc1ccc(-c2ccc(Cl)c(C(=O)NCC3CCCCC3)c2)o1` (mixture of isomers) [NG-04-274, 3-(4-((5-(4-chloro-3-((cyclohexylmethyl)carbamoyl)phenyl)furan-2-yl)methylene)-3-methyl-5-oxo-4,5-dihydro-1H-pyrazol-1-yl)benzoic acid]: the 50% inhibitory concentration (IC50) stood at 35 µM.
For `CCOC(=O)c1cccc(N2N=C(C(F)(F)F)C(=Cc3ccc(-c4ccc(Cl)c(C(=O)Nc5cccc(OC)c5)c4)o3)C2=O)c1` (mixture of isomers) [NG-04-311, ethyl 3-(4-((5-(4-chloro-3-((3-methoxyphenyl)carbamoyl)phenyl)furan-2-yl)methylene)-5-oxo-3-(trifluoromethyl)-4,5-dihydro-1H-pyrazol-1-yl)benzoate] the value was more than 50 µM; for `CCOC(=O)c1cccc(N2N=C(C)/C(=C/c3ccc(-c4ccc(Cl)c(C(=O)O)c4)o3)C2=O)c1` [Compound 31a, (Z)-2-Chloro-5-(5-((1-(3-(ethoxycarbonyl)phenyl)-3-methyl-5-oxo-1H-pyrazol-4(5H)-ylidene)methyl)furan-2-yl)benzoic acid], more than 25 µM; for `CCOC(=O)c1cccc(N2N=C(C)/C(=C/c3ccc(-c4ccc(Cl)c(C(=O)NCc5ccc(F)cc5)c4)o3)C2=O)c1` [Compound 33a, (Z)-Ethyl 3-(4-((5-(4-chloro-3-((4-fluorobenzyl)carbamoyl)phenyl)furan-2-yl)methylene)-3-methyl-5-oxo-4,5-dihydro-1H-pyrazol-1-yl)benzoate], more than 25 µM.
To `CC1=NN(c2cccc(C(=O)O)c2)C(=O)/C1=C\c1ccc(-c2ccc(Cl)c(C(=O)NC3CC3)c2)o1` [Compound 34f, (Z)-3-(4-((5-(4-Chloro-3-(cyclopropylcarbamoyl)phenyl)furan-2-yl)methylene)-3-methyl-5-oxo-4,5-dihydro-1H-pyrazol-1-yl)benzoic acid] belongs 32 µM; to `CC1=NN(c2cccc(C(=O)O)c2)C(=O)/C1=C\c1ccc(-c2ccc(Cl)c(C(=O)NC3CCOCC3)c2)o1` [Compound 34g, (Z)-3-(4-((5-(4-Chloro-3-((tetrahydro-2H-pyran-4-yl)carbamoyl)phenyl)furan-2-yl)methylene)-3-methyl-5-oxo-4,5-dihydro-1H-pyrazol-1-yl)benzoic acid], 40 µM; to `CC1=NN(c2cccc(C(=O)O)c2)C(=O)/C1=C\c1ccc(-c2ccc(Cl)c(C(=O)COc3ccccc3Cl)c2)o1` [Compound 2249], 2.5 µM.
To `C=CCCCc1cccc(-c2ccc(/C=C3/C=NN(c4cccc(C(=O)O)c4)C3=O)o2)c1` [Compound 2922] belongs 3 µM; to `CC1=NN(c2cccc(C(=O)O)c2)C(=O)/C1=C\c1ccc(-c2cccc(C(=O)OC(C)C)c2)o1` [Compound 3125], 3 µM.
Regarding `CC1=NN(c2cccc(C(=O)O)c2)C(=O)C1Cc1ccc(-c2ccc(Cl)c(C(=O)NCc3ccc(F)cc3)c2)o1` (centres unmarked) [NG-01-65, 3-(4-((5-(4-Chloro-3-((4-fluorobenzyl)carbamoyl)phenyl)furan-2-yl)methyl)-3-methyl-5-oxo-4,5-dihydro-1H-pyrazol-1-yl)benzoic acid], the IC50 was more than 25 µM.
For `CC1=NN(c2cccc(C(=O)O)c2)C(=O)C1Cc1ccc(-c2ccc(Cl)c(C(=O)NCC3CC3)c2)o1` (centres unmarked) [NG-01-72R, 3-(4-((5-(4-Chloro-3-((cyclopropylmethyl)carbamoyl)phenyl)furan-2-yl)methyl)-3-methyl-5-oxo-4,5-dihydro-1H-pyrazol-1-yl)benzoic acid], the IC50 came to 42 µM.
For `CC1=NN(c2ccc(C(=O)O)cc2)C(=O)C1Cc1ccc(-c2ccc(Cl)c(C(=O)NCc3ccc(F)cc3)c2)o1` (centres unmarked) [NG-02-151, 4-(4-((5-(4-Chloro-3-((4-fluorobenzyl)carbamoyl)phenyl)furan-2-yl)methyl)-3-methyl-5-oxo-4,5-dihydro-1H-pyrazol-1-yl)benzoic acid] the value was 15 µM and 35 µM; for `CCOC(=O)c1cccc(N2N=C(C)C(=Cc3ccc(C(=O)O)o3)C2=O)c1` [NG-02-154, 5-((1-(3-(ethoxycarbonyl)phenyl)-3-methyl-5-oxo-1,5-dihydro-4H-pyrazol-4-ylidene)methyl)furan-2-carboxylic acid], 45 µM; for `COc1cccc(NC(=O)c2ccc(/C=C3\C(=O)N(c4cccc(C(=O)O)c4)N=C3C)o2)c1` [NG-02-162/ NG-02-162C, (Z)-3-(4-((5-((3-methoxyphenyl)carbamoyl)furan-2-yl)methylene)-3-methyl-5-oxo-4,5-dihydro-1H-pyrazol-1-yl)benzoic acid], 35 µM.
`COc1cccc(NC(=O)c2cc(-c3ccc(/C=C4\C(=O)N(c5cccc(C#N)c5)N=C4C)o3)ccc2Cl)c1` [NG-03-193, (Z)-2-chloro-5-(5-((1-(3-cyanophenyl)-3-methyl-5-oxo-1,5-dihydro-4H-pyrazol-4-ylidene)methyl)furan-2-yl)-N-(3-methoxyphenyl)benzamide] came in with a concentration for half-maximal inhibition (IC50) of more than 25 µM.
In the case of `COc1cccc(NC(=O)c2cc(-c3ccc(/C=C4\C(=O)N(c5cccc(C(=O)O)c5)N=C4C)s3)ccc2Cl)c1` [NG-03-203, (Z)-3-(4-((5-(4-chloro-3-((3-methoxyphenyl)carbamoyl)phenyl)thiophen-2-yl)methylene)-3-methyl-5-oxo-4,5-dihydro-1H-pyrazol-1-yl)benzoic acid], the IC50 was 3 µM and 7.5 µM and 11 µM.
To `COc1ccc(NC(=O)c2cc(-c3ccc(CC4C(=O)N(c5cccc(C(=O)O)c5)N=C4C)o3)ccc2Cl)cc1OC` (centres unmarked) [NG-03-206, 3-(4-((5-(4-Chloro-3-((3,4-dimethoxyphenyl)carbamoyl)phenyl)furan-2-yl)methyl)-3-methyl-5-oxo-4,5-dihydro-1H-pyrazol-1-yl)benzoic acid] belongs 11 µM.
To `COc1cccc(NC(=O)c2cc(-c3ccc(CC4C(=O)N(c5cccc(C(=O)O)c5)N=C4C)s3)ccc2Cl)c1` (centres unmarked) [NG-03-207, 3-(4-((5-(4-chloro-3-((3-Methoxyphenyl)carbamoyl)phenyl)thiophen-2-yl)methyl)-3-methyl-5-oxo-4,5-dihydro-1H-pyrazol-1-yl)benzoic acid] belongs 12.5 µM; to `CC1=NN(c2cccc(C(=O)O)c2)C(=O)/C1=C\c1ccc(-c2ccc(Cl)c(C(=O)O)c2)s1` [NG-03-224, (Z)-5-(5-((1-(3-Carboxyphenyl)-3-methyl-5-oxo-1,5-dihydro-4H-pyrazol-4-ylidene)methyl)thiophen-2-yl)-2-chlorobenzoic acid], 30 µM; to `CC1=NN(c2cccc(C(=O)O)c2)C(=O)/C1=C\c1ccc(-c2ccc(Cl)c(C(=O)NCc3ccc(F)cc3)c2)s1` [NG-03-227, (Z)-3-(4-((5-(4-Chloro-3-((4-fluorobenzyl)carbamoyl)phenyl)thiophen-2-yl)methylene)-3-methyl-5-oxo-4,5-dihydro-1H-pyrazol-1-yl)benzoic acid], 7 µM.
To `CC1=NN(c2cccc(C(=O)O)c2)C(=O)C1Cc1ccc(-c2ccc(Cl)c(C(=O)NCC3CC3)c2)s1` (centres unmarked) [NG-03-231, 3-(4-((5-(4-Chloro-3-((cyclopropylmethyl)carbamoyl)phenyl)thiophen-2-yl)methyl)-3-methyl-5-oxo-4,5-dihydro-1H-pyrazol-1-yl)benzoic acid] belongs 40 µM.
For `CC1=NN(c2ccc(C(=O)O)cc2)C(=O)/C1=C\c1ccc(-c2ccc(Cl)c(C(=O)O)c2)s1` [NG-03-234, (Z)-5-(5-((1-(4-Carboxyphenyl)-3-methyl-5-oxo-1,5-dihydro-4H-pyrazol-4-ylidene)methyl)thiophen-2-yl)-2-chlorobenzoic acid], the 50% inhibitory concentration (IC50) was found to be 12 µM.
For the compound `COc1cccc(NC(=O)c2cc(-c3ccc(/C=C4\C(=O)N(c5ccc(C(=O)O)cc5)N=C4C)s3)ccc2Cl)c1` [NG-03-236, (Z)-4-(4-((5-(4-Chloro-3-((3-methoxyphenyl)carbamoyl)phenyl)thiophen-2-yl)methylene)-3-methyl-5-oxo-4,5-dihydro-1H-pyrazol-1-yl)benzoic acid], the IC50 is 12 µM.
For `COc1cccc(NC(=O)c2cc(-c3ccc(CC4C(=O)N(c5ccc(C(=O)O)cc5)N=C4C)s3)ccc2Cl)c1` (centres unmarked) [NG-03-238, 4-(4-((5-(4-Chloro-3-((3-methoxyphenyl)carbamoyl)phenyl)thiophen-2-yl)methyl)-3-methyl-5-oxo-4,5-dihydro-1H-pyrazol-1-yl)benzoic acid] the value was 45 µM.
Compound `CC1=NN(c2cccc(C(=O)O)c2)C(=O)/C1=C\c1ccc(-c2ccc(Cl)c(C(=O)NCc3ccccc3)c2)o1` [NG-03-270, (Z)-3-(4-((5-(3-(Benzylcarbamoyl)-4-chlorophenyl)furan-2-yl)methylene)-3-methyl-5-oxo-4,5-dihydro-1H-pyrazol-1-yl)benzoic acid] came in with an IC50 of 36 µM.
To `CC1=NN(c2cccc(C(=O)O)c2)C(=O)/C1=C\c1ccc(-c2ccc(Cl)c(C(=O)NCc3ccccc3Cl)c2)o1` [NG-03-271, (Z)-3-(4-((5-(4-chloro-3-((2-chlorobenzyl)carbamoyl)phenyl)furan-2-yl)methylene)-3-methyl-5-oxo-4,5-dihydro-1H-pyrazol-1-yl)benzoic acid] belongs 40 µM.
To `COc1cccc(CNC(=O)c2cc(-c3ccc(/C=C4\C(=O)N(c5ccc(C(=O)O)cc5)N=C4C)o3)ccc2Cl)c1` [NG-03-286, (Z)-4-(4-((5-(4-Chloro-3-((3-methoxybenzyl)carbamoyl)phenyl)furan-2-yl)methylene)-3-methyl-5-oxo-4,5-dihydro-1H-pyrazol-1-yl)benzoic acid] belongs 38 µM.
On to `COc1cccc(CNC(=O)c2cc(-c3ccc(CC4C(=O)N(c5ccc(C(=O)O)cc5)N=C4C)o3)ccc2Cl)c1` (centres unmarked) [NG-04-294, 4-(4-((5-(4-chloro-3-((3-methoxybenzyl)carbamoyl)phenyl)furan-2-yl)methyl)-3-methyl-5-oxo-4,5-dihydro-1H-pyrazol-1-yl)benzoic acid], for which it took 40 µM to reach half-maximal inhibition (IC50).
To `CCOC(=O)c1cccc(N2N=C(C(F)(F)F)/C(=C/c3ccc(-c4ccc(Cl)c(C(=O)O)c4)o3)C2=O)c1` [NG-04-300, 2-chloro-5-(5-((1-(3-(ethoxycarbonyl)phenyl)-5-oxo-3-(trifluoromethyl)-1,5-dihydro-4H-pyrazol-4-ylidene)methyl)furan-2-yl)benzoic acid] belongs 40 µM.
